Assay results reported in US20210063414A1, “METHODS FOR PREVENTING AND/OR TREATING BONE LOSS CONDITIONS BY MODULATING IRISIN” (Dana-Farber Cancer Institute, Inc., priority 2018, published 2021).

Tested on: his-tag integrins
Experiment: Irisin-integrin binding in presence of RGDS or control peptide, co-immunoprecipitation
Design: species or system human
Settings: 100 nM flag-tag irisin, 5 nM his-tag integrins, 10 uM peptide, vs control RGD peptide
Procedure: 100 nM flag-tag irisin was incubated with 5 nM of indicated integrins with his-tag in the presence of RGDS peptide or its control peptide (10 uM). This was followed by immunoprecipitation using anti-his-tag agarose. Co-precipitated irisin was analyzed by immunoblot analysis with antibody against flag tag.
Certain materials and methods were used to generate the results described herein. For example, the data shown in FIG. 1A resulted from MLO-Y4 (an osteocyte-like cell line) cells treated with the indicated concentration of irisin and hydrogen peroxide for 4 hours. Cells were stained with Hoechst 33342 (ThermoFisher Scientific, catalog number H3570) and Eth-D1 (ThermoFisher Scientific, catalog number E1169) and analyzed to determine the percentage of cell death using ImageJ. […] Co-precipitated irisin was analyzed by immunoblot analysis against flag tag (Sigma Aldrich, catalog number A8592). The data shown in FIGS. 5A and 5B were generated from MLO-Y4 cells treated and analyzed as in the experiments used to generate the data shown in FIG. 2D, except that pre-treatment of 100 nM RGDS (FIG. 5A) or echistatin (R & D Systems Inc., catalog number 3202/100U) (FIG. 5B) for 10 minutes was performed before irisin treatment. […] Sclerostin mRNA level was analyzed by qPCR (FIG. 7A). […]

How did the “effect on irisin binding to integrins” value turn out when “RGDS peptide: classical integrin competitive inhibitory peptide, commercially available form of the RGD peptide” was run?
Its value is “inhibited much of the irisin binding”.

What about the “effect on irisin binding to integrins” value (listed as RGDS) of the same substance?
The value was “blocked”.
